How the values were obtained:
[1] = One-photon absorption and emission spectra in multilamellar lipid vesicles, water and ethanol; type: physicochemical; details: for Absorbance MLV / Emission MLV: multilamellar lipid vesicles
From the text: […] The column indicating relative signal change for one-photon fluorescence also lists the excitation light source used and the lower bounds of the long-pass emission detected.
Absorption and emission spectra were obtained for a series of dyes with different acceptors: pyridinium (PY-1261), quinolinium (PY-212), and acridinium (PY-2240).

[2] = tested on: layer V pyramidal neurons; test: Toxicity / photodynamic damage: AP half-width during optical recording
From the text: S. Antic, G. Major, D. Zecevic, “Fast optical recordings of membrane potential changes from dendrites of pyramidal neurons”, Journal of Neurophysiology, 82, 1615-1621 (1999). Accumulation of reactive oxygen species (free radicals), which interact with and damage neuronal plasmalemma, is the most likely mechanism. J. B. Feix, B. Kalyanaraman, “Production of singlet oxygen-derived hydroxyl radical adducts during merocyanine-540-mediated photosensitization: analysis by ESR-spin trapping and HPLC with electrochemical detection”, Archives of Biochemistry & Biophysics, volume 291, pages 43-51 (1991). High intensity illumination during optical recording sessions excites large number of membrane bound dye molecules. Since styryl dyes have tendency to penetrate deep into the lipid bilayers (E. Fluhler, V. G. Burnham, L. M. Loew, “Spectra, membrane binding, and potentiometric responses of new charge shift probes”, Biochemistry, 24, 5749-5755 (1985)), free radicals are produced literally inside the neuronal membrane. […] S. D. Antic, “Action potentials in basal and oblique dendrites of rat neocortical pyramidal neurons”, Journal of Physiology 550, 35-50 (2003). […] Since dye loading was always done at room temperature (21° C.) and re-patching at 34° C., we could not compare AP shape and size before and after dye loading. Therefore, in order to check the extent of dye toxicity we designed a group of experiments in which neurons were injected and incubated at 34° C. During the dye injection (loading phase), in regular time intervals (3-5 min) direct current pulses was used to slowly charge the membrane and trigger an AP (FIG. 14A). Identical current pulse was then applied at the end of dye loading phase, just before the electrode pull-out (FIG. 14B) and after the 50-90 min incubation period (FIG. 14C, re-patch). […] To avoid AP jitter in optical recordings we used shorter and stronger current pulses (FIG. 14D, E, F, insets). However, from time to time we returned to AP-testing current injection protocol (FIG. 14D, E), while keeping the count on the number of cumulative high-intensity light exposures (# sweeps). […] Additional experimental details can be found in Ping Yan, Aifang Xie, Meide Wei, and Leslie M. Loew, “Amino(oligo)thiophene-Based Environmentally Sensitive Biomembrane Chromophores”, Journal of Organic Chemistry, published on web Jul. 30, 2008.

[3] = tested on: layer V pyramidal neurons; test: Voltage-sensitive dye imaging of action potentials in intracellularly stained pyramidal neurons in brain slices; type: cell-based, Sprague Dawley rats; details: for AP-associated optical signal, single example (base line-to-peak): FIG. 11, basal dendrite
From the text: Sprague Dawley rats (P21-42) were anesthetized with isoflurane, decapitated, and the brains were removed with the head immersed in ice-cold, artificial cerebrospinal fluid (ACSF), according to an animal protocol approved by the Center for Laboratory Animal Care, University of Connecticut. Brain slices (300 μm) were cut from frontal lobes in the coronal plane. ACSF contained (in mM) 125 NaCl, 26 NaHCO3, 10 glucose, 2.3 KCl, 1.26 KH2PO4, 2 CaCl2 and 1 MgSO4, pH 7.4. Whole-cell recordings were made from visually identified layer V pyramidal neurons on the medial part of the slice. Intracellular solution contained (in mM) 135 K-gluconate, 2 MgCl2, 3 Na2-ATP, 10 Na2-phosphocreatine, 0.3 Na2-GTP and 10 Hepes (pH 7.3, adjusted with KOH). Electrical signals were amplified with Multiclamp 700A and digitized with two input boards: (1) Digidata Series 1322A (Axon Instruments) at 5 kHz, and (2) Neuroplex (RedShirtImaging) at 2.7 kHz sampling rate. Only cells with a membrane potential more hyperpolarized than −50 mV, and action potential amplitudes exceeding 80 mV (measured from the base line) were included in this study. All experiments were performed on layer 5 cortical pyramidal cells at 34° C.
Blue dyes were stored in ethanol stock solution at −20° C. On the day of the recording blue dyes were dissolved in standard K-gluconate based intracellular solution. A loading pipette was filled with two varieties of the same intracellular solution; one with and one without dye. Dye-free solution was occupying the very tip of the pipette, while the back of the pipette lumen was microloaded with dye-rich solution. The purpose of dye-free solution in the tip of the patch pipette was to prevent dye-leak during the maneuver through brain slice tissue. VSD styryl dyes are lipophilic and bind indiscriminately and irreversibly to all membranes around the neuron of interest. Even a small amount of dye that leaks out of the pipette during the formation of the gigaohm seal, can generate strong fluorescent background. Fluorescent light emanating from surrounding tissue has a devastating effect on dendritic optical signals. Elimination of the background fluorescence is critical for dendritic voltage imaging. How much dye-free solution one should put in the tip depends on time period between the submersion of the patch pipette into the recording chamber and formation of the gigaohm seal. The faster one can perform this maneuver the less dye-free solution she needs to achieve optimal staining.
Blue VSD were injected at room temperature for 25-60 minutes. The filling pipette was carefully pulled out (outside-out patch) and brain slices were left to incubate for 20-120 minutes at room temperature. Just before optical recordings the cells were re-patched with dye-free pipette at the physiological temperature (34° C.).
Voltage-sensitive dye imaging was performed on a Zeiss Axioskope 2FS microscope equipped with NeuroCCD camera (RedShirtImaging). We used Zeiss 40× objective IR-Achroplan 0.80 W. The size of the square visual field captured by NeuroCCD camera was 384×384 um. In the place of the arc lamp (normally used for epi-illumination), we inserted a 200 μm fiber optic guide with a collimator. Laser beam was focused on the other side of the fiber optic guide using a microscope objective-like lens. This arrangement produced a motionless spot of laser light (˜25 μm in diameter) at the object plane. An illuminated section of the brain slice, projected onto the NeuroCCD camera, covered approximately 25 pixels when used with 40× objective lens. At this magnification, one pixel sampled a 4.8×4.8 square in the object plane. A region of interest (ROI) was brought into the laser spot using X-Y microscope platform. The laser beam was interrupted by an electro-programmable shutter (Uniblitz®). Attention was made to limit the exposure time during the recording and positioning of the neuron.

[4] = One-photon fluorescence relative signal change per 100 mV; details: excitation / long-pass emission (nm) given
From the text: The left-most data columns of Table 1 are the absorption and emission maxima for one photon fluorescence in soybean multi-lamellar lipid vesicles used to mimic the membrane environment. The column indicating relative signal change for one-photon fluorescence also lists the excitation light source used and the lower bounds of the long-pass emission detected.

[5] = tested on: NIE-115 mouse neuroblastoma; test: SHG and 2PF voltage sensitivity, 50 mV step, slow switching protocol on patch-clamped neuroblastoma cell; type: cell-based; details: comparator named in the sentence (PY-1266; PY-1268)
From the text: For full details of our non-linear imaging microscope, we refer the reader to previously published descriptions. A. C. Millard, P. J. Campagnola, W. Mohler, A. Lewis, and L. M. Loew, “Second Harmonic Imaging Microscopy,” Meth. Enzymol. 361, 47-69 (2003); Millard, A. C., L. Jin, and L. M. Loew, “Second Harmonic Generation Imaging Microscopy with a High Power Ultrafast Fiber Laser,”Commercial and Biomedical Applications of Ultrafast Lasers. 5714-5716, 92-98 (2005); A. C. Millard, L. Jin, M.-D. Wei, J. P. Wuskell, A. Lewis, and L. M. Loew, “Sensitivity of Second Harmonic Generation from Styryl Dyes to Transmembrane Potential,” Biophys. J. 86, 1169-1176 (2004). Our current microscope combines a Fluoview (Olympus) scan-head and an Axiovert (Zeiss) inverted microscope constructed for multiple imaging methodologies including wide-field, one-photon excitation fluorescence imaging, as well as SHG and 2PF imaging. Our laser sources include a Mira (Coherent) Ti:sapphire laser and a Femtopower (Fianium) fiber laser operating at 1064 nm. […] Fluorescence is imaged (for linear imaging) or collected (for non-linear imaging) back through the excitation objective, while SHG is collected in the forward, transmitted light direction by a condenser, either 0.8 NA or 0.55 NA (Zeiss). […]

[6] = tested on: NIE-115 mouse neuroblastoma; test: Time-dependence (kinetics) of SHG and 2PF signal change after voltage-clamp step; type: cell-based; details: time resolution 5 ms
From the text: For full details of our non-linear imaging microscope, we refer the reader to previously published descriptions. A. C. Millard, P. J. Campagnola, W. Mohler, A. Lewis, and L. M. Loew, “Second Harmonic Imaging Microscopy,” Meth. Enzymol. 361, 47-69 (2003); Millard, A. C., L. Jin, and L. M. Loew, “Second Harmonic Generation Imaging Microscopy with a High Power Ultrafast Fiber Laser,”Commercial and Biomedical Applications of Ultrafast Lasers. 5714-5716, 92-98 (2005); A. C. Millard, L. Jin, M.-D. Wei, J. P. Wuskell, A. Lewis, and L. M. Loew, “Sensitivity of Second Harmonic Generation from Styryl Dyes to Transmembrane Potential,” Biophys. J. 86, 1169-1176 (2004). Our current microscope combines a Fluoview (Olympus) scan-head and an Axiovert (Zeiss) inverted microscope constructed for multiple imaging methodologies including wide-field, one-photon excitation fluorescence imaging, as well as SHG and 2PF imaging. Our laser sources include a Mira (Coherent) Ti:sapphire laser and a Femtopower (Fianium) fiber laser operating at 1064 nm. Millard, A. C., L. Jin, and L. M. Loew, “Second Harmonic Generation Imaging Microscopy with a High Power Ultrafast Fiber Laser,”Commercial and Biomedical Applications of Ultrafast Lasers. 5714-5716, 92-98 (2005). For excitation, we routinely use an IR-Achroplan (Zeiss) 40×, 0.8 NA water-immersion objective though for shorter wavelengths we also use an A-Plan (Zeiss) 40×, 0.65 NA air objective. Fluorescence is imaged (for linear imaging) or collected (for non-linear imaging) back through the excitation objective, while SHG is collected in the forward, transmitted light direction by a condenser, either 0.8 NA or 0.55 NA (Zeiss). For optimal collection, the numerical aperture of the condenser should be at least 1/√2 of the numerical aperture of the excitation objective (L. Moreaux, O. Sandre, S. Charpak, M. Blanchard-Desce, and J. Mertz, “Coherent Scattering in Multi-Harmonic Light Microscopy,” Biophys. J. 80, 1568-1574 (2001); L. Moreaux, O. Sandre, and J. Mertz. “Membrane Imaging by Second Harmonic Generation Microscopy,” J. Opt. Soc. Am. B. 17, 1685-1694 (2000)), though in practice a condenser of slightly lower numerical aperture will often suffice. Since the wavelength of second harmonic light is precisely half that of the excitation light, the choice of filter for SHG imaging is greatly simplified and the primary concern is the blocking of the excitation light that is also transmitted through the sample as well as fluorescence that is emitted forwards.
NIE-115 mouse neuroblastoma were cultured in DMEM with 10% fetal bovine serum and 1% antibiotic-antimycotic (Invitrogen, Carlsbad, Calif.) in a 60 mm plastic dish (353002, Becton Dickinson, Franklin Lakes, N.J.). The culture was maintained at 37° C. with 5% CO2 for a period of 48 hours prior to experimentation.
For experimentation the growth medium was replaced with 3 mL of Earle's Balanced Salt Solution (EBSS, Sigma, St. Louis, Mo.) with 20 mM HEPES (Merck Biosciences AG, Laufelfingen, Switzerland). The internal buffer, injected into the patch pipette, was a potassium aspartate (140 mM, Sigma, St. Louis, Mo.), sodium chloride (5 mM, Sigma, St. Louis, Mo.) and HEPES (10 mM) solution at a pH of 7.35. The pH was adjusted with potassium hydroxide and hydrochloric acid.
For characterizing the voltage-sensitivity of SHG and 2PF, we used a slow (˜0.1 Hz) switching protocol as previously described (A. C. Millard, P. J. Campagnola, W. Mohler, A. Lewis, and L. M. Loew, “Second Harmonic Imaging Microscopy,” Meth. Enzymol. 361, 47-69 (2003); Millard, A. C., L. Jin, and L. M. Loew, “Second Harmonic Generation Imaging Microscopy with a High Power Ultrafast Fiber Laser,” Commercial and Biomedical Applications of Ultrafast Lasers. 5714-5716, 92-98 (2005); A. C. Millard, L. Jin, M.-D. Wei, J. P. Wuskell, A. Lewis, and L. M. Loew, “Sensitivity of Second Harmonic Generation from Styryl Dyes to Transmembrane Potential,” Biophys. J. 86, 1169-1176 (2004)) with a 50 mV step. […]

[7] = one photon, soybean multi-lamellar lipid vesicles

## CCN(CC)c1ccc2cc(/C=C/C=C/c3cc[n+](CCC[N+](C)(C)C)c4ccccc34)ccc2c1.[Br-].[Br-] [JPW-4090, Di-2-ANBDQPQ]
[1]
  Absorbance ethanol: 584 nm
  Emission ethanol: 812 nm
  Absorbance MLV: 526 nm
  Emission MLV: 702 nm
  Absorbance water: 490 nm
[2]; Sprague-Dawley, rat
  slope of linear fit, AP half-width versus cumulative sweeps: 0.0003
  sweeps recorded per session on average: 114±67 sweeps
  time since beginning of dye injection without AP broadening: ≥ 192 min
[3]
  polarity of optical signal at 532 nm excitation: positive signals
  polarity of optical signal at 658 nm excitation: positive signals
  AP-associated optical signal, single example (base line-to-peak): 17 % ΔF/F
[3]; FIG. 11
  optical signal amplitude of blue dye relative to red dye JPW-3028: approximately 3 times
[3]; backpropagating AP, basal dendrites 80-150 μm from soma, laser spot 633 nm, %
  dF/F at 633 nm: 12.70 ± 3.59%
[3]; backpropagating AP, basal dendrites 80-150 μm from soma, laser spot 658 nm, %
  dF/F at 658 nm: 11.03 ± 2.24%
[3]; basal dendrites 80-150 μm from soma
  voltage sensitivity compared with red dye: better sensitivity than red dye JPW-3028
[3]; laser spot 633 nm
  S/N ratio at 633 nm: 5.48 ± 2.01
[3]; laser spot 658 nm
  S/N ratio at 658 nm: 6.93±1.88

## Di-1-ANEPEQ [JPW-3028, reference compound]
[1]
  Absorbance ethanol: 511 nm
  Emission ethanol: 718 nm
  Absorbance MLV: 457 nm
  Emission MLV: 670 nm
  Absorbance water: 440 nm
[2]; FIG. 15A, 15C
  slope of linear fit, AP half-width versus cumulative sweeps: 0.0027
[2]; n=12
  sweeps recorded before AP half-width grew by more than 15% from control: 86±28 sweeps
[3]
  AP-associated optical signal, single example (base line-to-peak): 5 % ΔF/F
[3]; laser spot 532 nm
  S/N ratio at 532 nm: {at 532 nm = 5.95 ± 2.16}

## CC[N+](CC)(CC)CCC[n+]1ccc(/C=C/c2ccc(-c3ccc(N(C)C)s3)s2)cc1 [PY-1282]
[4]
  1PF Change (ΔF/F-100 mv): 8.0E−002; 640/>715 ΔF/F-100 mv
[5]
  SHG signal sensitivity relative to another dye: three-fold increase
[6]
  SHG Kinetics (exponential time constant): 16 ± 1 ms
[1]; [7]
  1PF Abs. Max: 530 nm
  1PF Em. Max: 676 nm
